From the METLIN SMRT retention time set (Domingo-Almenara et al. 2019) come the findings set out here.

This data set in a line: gradient 5% acetonitrile 3 min, to 50% in 2 min, to 85% in 15 min, held 3 min, 100 µL/min. The note with it: column: Zorbax Extend-C18 2.1 x 50 mm; eluents: water / acetonitrile, 0.1% formic acid. The gist of the method:
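Standards, all pure, were combined into mixtures of ~100 molecules and run at 100 μL/min on a Zorbax Extend-C18 column (2.1 × 50 mm, 1.8 μm) with water and acetonitrile, each containing 0.1% formic acid. A coupled quadrupole time-of-flight mass spectrometer operated in positive and negative ionization mode. Retention time values come from computationally picked adduct peaks, each inspected manually.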
For `C/C=C1/CN2CC[C@]34C(=C(C=O)[C@H]1C[C@H]23)Nc1ccccc14`, the RP-LC retention time was determined as 606 s. `O=C(Nc1ccc2nncn2c1)Nc1ccccc1F` registered an RP-LC retention time of 659 s. As to `Cc1nc(NC(=O)C2COCC(=O)N2Cc2ccccc2)sc1C(=O)N(C)C` (stereo not given), the RP-LC retention time stood at 615 s.

Molecule `CCc1ccc2nc(Nc3ncc4c(n3)CC(c3ccccc3)CC4=O)nc(C)c2c1` (stereo not given) returned an RP-LC retention time of 636 s. As to `Cc1cc(C)c(S(=O)(=O)N2CCc3c(c(-c4nnc(-c5ccccc5)o4)nn3C)C2)cc1C`, the RP-LC retention time was determined as 1070 s. `O=C(Cn1c(=O)c2cccn2c2ccccc21)NCCCN1CCCCCC1` gave an RP-LC retention time of 612 s.

The molecule `CCc1c(C(=O)O)nnn1Cc1ccc(OC)cc1` came in with an RP-LC retention time of 734 s. Molecule `COc1ccc(-n2cc(C(=O)Nc3cnc4ccccc4c3)nn2)cc1` came in with an RP-LC retention time of 821 s. Take `O=C(Cc1c(Sc2cccc(F)c2)[nH]c2ccccc12)N1CCN(c2ncccn2)CC1`: the RP-LC retention time stood at 975 s. For `CCc1cc(C(=O)Nc2ccc(C)c(C)c2)nc2ccnn12`, the RP-LC retention time came to 1150 s. To `Cc1nn2c(S(=O)(=O)N3CCC4(CC3)OCCO4)c(C)nc2s1` belongs 692 s; to `CCN(CC)S(=O)(=O)c1cc(-c2nnc(-c3ccc(OC)cc3)o2)ccc1C`, 1030 s; to `Cc1ccc(NC(=O)N2CCc3cn(C)c4cccc(c34)C2)c(C)c1`, 980 s. In the case of `O=C(Nc1cc(-c2ccccn2)no1)c1cccc(Br)c1`, the RP-LC retention time was determined as 894 s. Turning to `CCc1csc(-c2ccc(N3CCN(C(=O)c4c(F)cccc4F)CC3)nc2)n1`, the RP-LC retention time amounted to 976 s. In turn, `CCN1C(=O)Cc2ccccc2C1C(=O)NCc1ccc(Br)cc1` (stereo not given) registered an RP-LC retention time of 802 s. `COc1ccc(-c2csc(C)n2)cc1S(=O)(=O)N1CCN(c2ccccc2)CC1` had an RP-LC retention time of 1060 s. In turn, `O=C(CNC(=O)c1ccc(F)c(F)c1)Nc1nc2ccccc2[nH]1` showed an RP-LC retention time of 632 s. Then `COc1cccc(CCN2CC(=O)N(c3ccc(C)c(C)c3)[C@@H]3CS(=O)(=O)C[C@@H]32)c1`, with 872 s; and `Cc1ccc(Cn2c(N3CCCC(C(=O)NCCC(C)C)C3)nc3ccsc3c2=O)cc1` (stereo not given), with 1030 s. Consider `Cc1ccc(C2c3[nH]c4ccccc4c3CCN2C(=O)c2cccs2)cc1` (stereo not given), for which the RP-LC retention time was 1200 s. Then `COCCc1noc(CC2CCOC3(CCN(C(=O)NC(C)(C)C)CC3)C2)n1` (stereo not given), with 700 s. `Cc1ccc(CCC(=O)Nc2ccc(SC(F)F)cc2)o1` came in with an RP-LC retention time of 919 s. Take `CC(=O)Nc1ccc(C(=O)N2CC3CN(S(=O)(=O)c4cccc(F)c4)CC(C2)O3)cc1`: the RP-LC retention time came to 685 s. `O=C(Cn1cnc(-c2cccs2)cc1=O)NCc1nc2ccccc2[nH]1` gave an RP-LC retention time of 570 s. Consider `CCOCCCNC(=O)C1CCCN(c2nnc(C)c3c(C)n(-c4ccc(Cl)cc4)nc23)C1` (stereo not given), for which the RP-LC retention time was 688 s. Then `Cc1ccc(-c2noc(-c3cccc(S(=O)(=O)N(C)Cc4ccco4)c3)n2)cc1`, with 1260 s.

`COc1ccc(OCC(=O)NS(=O)(=O)c2ccccc2)cc1`: the RP-LC retention time turned out to be 745 s. In turn, `Cc1ccc(N2CCN(C(=O)c3c(C)oc4nc(C)nc(N5CCOCC5)c34)CC2)c(C)c1` showed an RP-LC retention time of 1020 s. With `CCNc1cc(C)nc(N2CCN(C(=O)C(C)(C)C)CC2)n1`, the RP-LC retention time came out at 632 s. `CCc1nc2c(N)cccn2n1` displayed an RP-LC retention time of 597 s.

The molecule `Cc1ccc(-c2nc(CN3C(=O)C(O)(c4ccccc4)c4ccccc43)c(C)o2)cc1` (stereo not given) displayed an RP-LC retention time of 1120 s. To `O=C(Cn1cnc2c(sc3nc(-c4ccccc4)ccc32)c1=O)NCc1ccco1` belongs 887 s; to `COC(=O)c1ccc2c(=O)n(-c3ccccc3)c(N3CCSCC3)nc2c1`, 1030 s; to `COCCN1C(=O)CCc2cc(NS(=O)(=O)c3ccc(C)c(Cl)c3)ccc21`, 851 s. `O=C(CCc1csc(NC(=O)c2ccccc2)n1)Nc1nc2ccc(Cl)cc2s1` gave an RP-LC retention time of 970 s. Then `CN(C)c1ccc(CNC(=O)C2CCN(S(=O)(=O)c3ccc4c(c3)CCCC(=O)N4)CC2)cc1`, with 607 s; and `Cc1cc(C)n(-c2ccc(SCC(=O)N3CCCc4ccccc43)nn2)n1`, with 914 s. Take `Cc1cccc(Oc2nccn3c(=O)n(CC(=O)NC(C)CCc4ccccc4)nc23)c1C` (stereo not given): the RP-LC retention time turned out to be 976 s. To `CC1(C(=O)NCc2ccccc2)Cn2c(ccc2-c2ccco2)C(=O)N1C1CC1` (stereo not given) belongs 810 s.

As to `CC(NC(=O)c1ccc(N(C)C)cc1)C(=O)N1CCCc2ccccc21` (stereo not given), the RP-LC retention time stood at 846 s.

On to `COc1ccc(Nc2c(-c3ccc(C(=O)O)cc3)nc3cnccn23)cc1OC`, for which the RP-LC retention time was found to be 663 s.

For `CCCn1c(=O)sc2cc(S(=O)(=O)N3CCC(C(=O)NC)CC3)ccc21`, the RP-LC retention time was determined as 730 s. `O=C(NC1(N2CCOCC2)CC1)c1ccc(Cl)cc1` displayed an RP-LC retention time of 667 s. In turn, `Cn1cc(-c2cc3n(n2)CCC(=O)N3CCCC(=O)NCc2ccc3c(c2)OCO3)c2ccccc21` had an RP-LC retention time of 795 s. To `Cc1nc(C)c(C(=O)NCc2c(-c3ccccc3)nc3sc(C)nn23)s1` belongs 737 s.

`O=C(NCCc1cccs1)c1cccc2c1CCN2C(=O)Nc1ccccc1`: the RP-LC retention time turned out to be 895 s. `CC1Cc2ccccc2N1S(=O)(=O)CCCOc1ccc2c(c1)OCO2` (stereo not given) returned an RP-LC retention time of 1020 s. With `CCN1C(=O)c2cccnc2Sc2cc(CNC(=O)c3ccc(C#N)cc3F)ccc21`, the RP-LC retention time turned out to be 760 s. To `Cc1cccc(-c2noc(C3CCCN3C(=O)Nc3ccccc3Cl)n2)c1` (stereo not given) belongs 606 s; to `Cc1ccc(NC(=O)C2CCCN2S(=O)(=O)c2cc3c(cc2C)NC(=O)CO3)cc1C` (stereo not given), 794 s.

`CCc1nc2cc(-c3noc(COc4cccc(Cl)c4)n3)ccc2o1` came in with an RP-LC retention time of 1240 s.

The molecule `CNC(=O)N1CCC(OC2CCN(Cc3ccccc3)CC2)CC1` displayed an RP-LC retention time of 555 s. As to `O=C(CCn1c(N2CCCC2)nc2ccsc2c1=O)Nc1cccc(Cl)c1`, the RP-LC retention time was determined as 892 s.

As to `O=C(Cc1cccs1)Nc1ccc(Nc2ccc(-n3cccn3)nn2)cc1`, the RP-LC retention time was 708 s. As for `CNC(=O)N1CCC(C2CCN(C(=O)c3ccc(Cl)s3)C2)CC1` (stereo not given), the RP-LC retention time is 705 s. `CCCn1cc(CCNC(=O)c2ccc(F)cc2Cl)c2cccnc21` gave an RP-LC retention time of 788 s.

Regarding `COc1cccc(NC(=O)CN2C(=O)NC3(CCC(C)CC3)C2=O)c1` (stereo not given), the RP-LC retention time is 789 s. Consider `CC1CS(=O)(=O)N(c2cccc(C(=O)N3CCN(c4ccccc4F)CC3)c2)C1=O` (stereo not given), for which the RP-LC retention time is 790 s.

On to `O=C(NCc1ccc2c(c1)OCO2)C1CCCN(c2ncc(-c3ccccc3)cn2)C1` (stereo not given), for which the RP-LC retention time is 992 s. With `CCc1ccc(S(=O)(=O)N2CCc3c(c(-c4nnc(-c5ccccc5F)o4)nn3C)C2)cc1`, the RP-LC retention time turned out to be 1040 s. As for `CC1=CC(=C2C=CC(=O)C=C2)C=C(C)N1C`, the RP-LC retention time stood at 620 s.

`CCOC(=O)c1c(C)[nH]c(C(=O)N2CCC(CC(=O)NC(C)CC)CC2)c1C` (stereo not given) yielded an RP-LC retention time of 715 s.

The molecule `COc1cccc(Cn2cc(S(=O)(=O)N3CCCCC3)ccc2=O)c1` showed an RP-LC retention time of 882 s. In the case of `Cc1ccc(-c2ccc3nn(Cc4nc(-c5ccc(F)c(Br)c5)no4)c(=O)n3n2)cc1`, the RP-LC retention time turned out to be 1090 s. On to `CN(CCCNC(=O)CN1C(=O)CSc2cccn2-c2ccccc21)Cc1ccccc1`, for which the RP-LC retention time is 677 s. Turning to `O=C(Cn1ccc2sccc2c1=O)N1CCN(c2ccccc2)CC1`, the RP-LC retention time was 724 s. Turning to `CC(C)NC(=O)Cn1cnc2nc(N3CCC(C(=O)NC4CC4)CC3)sc2c1=O`, the RP-LC retention time turned out to be 1060 s. `CCC(=O)N1CCc2ccccc2C1C(=O)NCCCN1CCCC1=O` (stereo not given) registered an RP-LC retention time of 646 s. `CCC(C)NC(=O)c1cn(-c2cc(-c3nc(C(C)C)no3)ccn2)cn1` (stereo not given) gave an RP-LC retention time of 907 s. To `O=C(Cc1ccc(NC(=O)NC2CC2)cc1)NCC(F)(F)F` belongs 611 s.

As to `O=C(Cc1cccs1)N1CCN(c2ccc(-c3ccco3)nn2)CC1`, the RP-LC retention time was found to be 734 s. Then `CCc1nn2c(CNS(=O)(=O)c3ccc(F)cc3)c(-c3ccccc3)nc2s1`, with 932 s.

For the molecule `O=C(Nc1c2c(nn1-c1cccc(Cl)c1)CSC2)C(=O)N1CCCC1`, the RP-LC retention time came out at 914 s. Molecule `O=C(c1ccc2nsnc2c1)N(Cc1ccsc1)Cc1ccco1` yielded an RP-LC retention time of 898 s. `CCCS(=O)(=O)c1nc2ccc(NS(=O)(=O)c3ccc4c(c3)CCC4)cc2s1` returned an RP-LC retention time of 999 s.

As for `COC(=O)c1cnc(N2CCN(C3CCCCC3)CC2)c2ccccc12`, the RP-LC retention time came to 683 s. Then `Cc1ccc(N2C(=O)C3N=NN(Cc4nc(-c5ccc(Br)cc5)no4)C3C2=O)cc1` (stereo not given), with 1070 s. To `Cc1noc(C)c1S(=O)(=O)N1CCC2(CC1)CC(OCc1ccccc1)CCO2` (stereo not given) belongs 1070 s; to `O=C(c1ccc(Cl)cc1)N1CCN=C1N1CCCCC1`, 640 s.
